Laboratory results: US20110112135A1, “Imidazo [1,2-A] Pyridine Compounds” (priority 2007, published 2011)

Key:
[1] = system: ABCA1 gene; experiment: Quantitative analysis of ABCA1 gene regulation in THP-1 cells (real-time PCR); type: cell-based, human; conditions: for Emax: Gene regulation by LXR (Human), differentiated THP-1 cells, 18 hrs, LXR agonist reference at 1.0 uM as positive control, read-out: Agonism ABCA1; for EC50: Homo sapiens, THP-1, 18 h, read-out: EC50 ABCA1
Description: III. Quantitative Analysis of ABCA1 Gene Regulation in THP-1 Cells. The compounds of formula (I) effect on the regulation of the ABCA1 gene was evaluated using the following procedure. Materials and Methods Cell culture: The THP-1 monocytic cell line (ATCC #TIB-202) was obtained from American Type Culture Collection (Manassas, Va.) and cultured in RPMI 1640 medium (Gibco, Carlsbad, Calif.) containing 10% FBS, 2 mM L-glutamine, and 55 uM beta-Mercaptoethanol (BME). […] Louis, Mo.) for three days to induce differentiation into adherent macrophages. Differentiated THP-1 cells were treated with test compounds or ligands dissolved in DMSO (Sigma, D-8779) in culture medium lacking phorbal ester. […] Dose response effects were measured in duplicate, in the range of 0.001 to 30 micromolar concentrations and treated cells were incubated for an additional 18 hrs prior to RNA isolation. Unstimulated cells treated with vehicle were included as negative controls on each plate. […] L., J. Med. Chem. (2000), 45:1963-1966.). Results of antagonist analysis are expressed as % antagonism and IC50 (in μM). RNA isolation and quantitation: Total cellular RNA was isolated from treated cells cultured in 96-well plates using PrepStation 6100 (Applied Biosystems, Foster City, Calif.), according to the manufacturer's recommendations. RNA was resuspended in ribonuclease-free water and stored at -70° C. prior to analysis. RNA concentrations were quantitated with RiboGreen test procedure, #R-11490 (Molecular Probes, Eugene, Oreg.). Gene expression analysis: Gene-specific mRNA quantitation was performed by real-time PCR with the Perkin Elmer Corp. chemistry on an ABI Prism 7700 Sequence detection system (Applied Biosystems, Foster City, Calif.) according to the manufacturer's instructions. Samples (50-100 ng) of total RNA were assayed in duplicate or triplicate in 50 ul reactions using one-step RT-PCR and the standard curve method to estimate specific mRNA concentrations. Sequences of gene-specific primer and probe sets were designed with Primer Express Software (Applied Biosystems, Foster City, Calif.). […] Relative levels of ABCA1 mRNA are normalized using GAPDH mRNA or 18S rRNA probe/primer sets purchased commercially (Applied Biosystems, Foster City, Calif.). Statistics: Mean, standard deviation and statistical significance of duplicate evaluations of RNA samples were assessed using ANOVA, one-way analysis of variance using SAS analysis. Reagents: -GAPDH Probe and Primers-Taqman GAPDH Control Reagents 402869 or 4310884E 18S Ribosomal RNA-Taqman 18S Control Reagents 4308329 […] Qiagen Quantitect probe RT-PCR 204443.

[2] = target: T1, human LXRα (Homo sapiens, UniProt Q13133); experiment: Ligand-binding test procedure for human LXRα (3H T0901317 tracer, flash plates); conditions: biotinylated hLXRα from E. coli extract; tracer 3H T0901317
T1 construct: biotin (biotinylated); made in house; host or cells: E. coli (crude extract)
T1 sequence (Q13133 1-447): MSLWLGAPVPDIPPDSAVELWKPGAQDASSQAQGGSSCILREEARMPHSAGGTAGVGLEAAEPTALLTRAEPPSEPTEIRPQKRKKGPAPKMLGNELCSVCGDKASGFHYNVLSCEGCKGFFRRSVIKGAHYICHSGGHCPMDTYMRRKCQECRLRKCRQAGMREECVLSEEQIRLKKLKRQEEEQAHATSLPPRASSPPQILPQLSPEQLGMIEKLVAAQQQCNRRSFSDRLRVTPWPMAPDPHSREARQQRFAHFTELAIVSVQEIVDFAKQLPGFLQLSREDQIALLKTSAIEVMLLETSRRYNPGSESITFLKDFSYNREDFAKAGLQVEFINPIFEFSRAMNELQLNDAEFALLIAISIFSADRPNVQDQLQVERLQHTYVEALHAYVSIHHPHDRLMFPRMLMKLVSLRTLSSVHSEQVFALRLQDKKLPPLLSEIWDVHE
Description: II. Ligand-Binding Test Procedure for Human LXRα.
Receptor source: E. coli extract from cells expressing biotinylated hLXRα. Extract was made in a similar buffer as above, but with 50 mM TRIS.
(§1) Washed streptavidin and coated flash plates with wash buffer. Diluted receptor extract to give Bmax ˜4000 cpm and add to the wells. Wrapped the plates in aluminum foil and stored them at +4° C. over night.
(§2) Made a dilution series in DMSO of the test ligands. Made a 5 nM solution of the radioactive tracer in buffer. Mixed 250 μl diluted tracer with 5 μl of the test ligand from each concentration of the dilution series. Washed the receptor-coated flash plates. Added 200 μl per well of the ligand/radiolabel mixture to the receptor-coated flash plates. Wrapped the plates in aluminum foil and incubate at +4° C. over night.
(§3) Aspirated wells, and wash the flashed plates. Sealed the plate. Measured the remaining radioactivity in the plate.

[3] = target: T2, human LXRβ (Homo sapiens, UniProt P55055); experiment: Ligand-binding test procedure for human LXRβ (3H T0901317 tracer, flash plates); conditions: biotinylated hLXRβ from E. coli extract; tracer 3H T0901317
T2 construct: biotin (biotinylated); made in house; host or cells: E. coli (crude extract)
T2 sequence (P55055 1-460): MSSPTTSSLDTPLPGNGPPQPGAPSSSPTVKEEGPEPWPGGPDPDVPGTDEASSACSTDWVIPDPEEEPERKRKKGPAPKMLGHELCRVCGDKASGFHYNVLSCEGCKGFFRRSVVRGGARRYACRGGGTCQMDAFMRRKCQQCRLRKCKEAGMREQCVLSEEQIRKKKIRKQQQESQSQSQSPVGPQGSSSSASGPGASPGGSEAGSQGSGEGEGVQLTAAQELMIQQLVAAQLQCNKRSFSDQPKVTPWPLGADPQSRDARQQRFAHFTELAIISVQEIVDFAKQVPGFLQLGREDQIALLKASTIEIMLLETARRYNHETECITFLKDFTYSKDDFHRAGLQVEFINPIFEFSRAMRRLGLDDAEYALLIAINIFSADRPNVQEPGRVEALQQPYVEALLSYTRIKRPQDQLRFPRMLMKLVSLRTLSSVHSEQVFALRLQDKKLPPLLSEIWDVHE
Description: I. Ligand-Binding Test Procedure for Human LXRβ.
Receptor source: E. coli extract from cells expressing biotinylated hLXRβ. Extract was made in a similar buffer as above, but with 50 mM TRIS.
as §1, §2, §3

`CCS(=O)(=O)c1cccc(Oc2cccc(-c3c(C)nc4c(C(F)(F)F)cccn34)c2)c1` [Example 10, 2-methyl-3-(3-(3-(ethylsulfonyl)phenoxy)phenyl)-8-(trifluoromethyl)imidazo[1,2-a]pyridine] showed an Emax [1] of 91% and an EC50 [1] of 0.552 µM.
In the case of `CCc1nc2c(C(F)(F)F)cccn2c1-c1cccc(Oc2cccc(S(C)(=O)=O)c2)c1` [Example 17, 2-ethyl-3-(3-(3-(methylsulfonyl)phenoxy)phenyl)-8-(trifluoromethyl)imidazo[1,2-a]pyridine], the Emax [1] is reported as 91% and the EC50 [1] is reported as 0.099 µM.
With `CNS(=O)(=O)c1cccc(Oc2cccc(-c3c(C(C)C)nc4c(Cl)cccn34)c2)c1` [Example 49, 3-[3-(8-chloro-2-isopropylimidazo[1,2-a]pyridin-3-yl)phenoxy]-N-methylbenzenesulfonamide] the Emax [1] was 101% and the EC50 [1] was 0.794 µM.
Work on `CC(C)c1nc2c(C(F)(F)F)cccn2c1-c1cccc(OCc2cccc(S(C)(=O)=O)c2)c1` [Example 52, 2-isopropyl-3-(3-{[3-(methylsulfonyl)benzyl]oxy}phenyl)-8-(trifluoromethyl)imidazo[1,2-a]pyridine] yielded an Emax [1] of 86% and an EC50 [1] of 2.39 µM.
`CC(C)c1nc2c(Cl)cccn2c1-c1cccc(Oc2cccc(S(C)(=O)=O)c2)c1` [Example 66, 8-chloro-2-isopropyl-3-{3-[3-(methylsulfonyl)phenoxy]phenyl}imidazo[1,2-a]pyridine] gave an Emax [1] of 74% and an EC50 [1] of 0.625 µM.
`CC(C)c1nc2c(C#N)cccn2c1-c1cccc(Oc2cccc(S(C)(=O)=O)c2)c1` [Example 72, 2-isopropyl-3-{3-[3-(methylsulfonyl)phenoxy]phenyl}imidazo[1,2-a]pyridine-8-carbonitrile] showed an Emax [1] of 79% and an EC50 [1] of 0.51 µM.
Molecule `CC(C)(C)c1nc2c(C(F)(F)F)cccn2c1-c1cccc(Oc2cccc(S(C)(=O)=O)c2)c1` [Example 75, 2-tert-butyl-3-{3-[3-(methylsulfonyl)phenoxy]phenyl}-8-(trifluoromethyl)imidazo[1,2-a]pyridine] has an Emax [1] of 91% and an EC50 [1] of 0.395 µM.
In the case of `CC(C)c1nc2c(Cl)cccn2c1-c1cccc(Oc2cccc(S(N)(=O)=O)c2)c1` [Example 98, 3-[3-(8-chloro-2-isopropylimidazo[1,2-a]pyridin-3-yl)phenoxy]benzenesulfonamide], the Emax [1] is reported as 66% and the EC50 [1] is reported as 1.37 µM.
Molecule `CCc1nc2c(C(F)(F)F)cccn2c1-c1cccc(Cc2cccc(S(C)(=O)=O)c2)c1` [Example 100, 2-ethyl-3-{3-[3-(methylsulfonyl)benzyl]phenyl}-8-(trifluoromethyl)imidazo[1,2-a]pyridine] has an Emax [1] of 82% and an EC50 [1] of 0.46 µM.
Work on `CC(C)c1nc2c(C#N)cccn2c1-c1cccc(Oc2cccc(CS(C)(=O)=O)c2)c1` [Example 115, 2-isopropyl-3-(3-{3-[(methylsulfonyl)methyl]phenoxy}phenyl)imidazo[1,2-a]pyridine-8-carbonitrile] yielded an IC50 [2] of over 1 µM and an IC50 [3] of over 1 µM.
For `CC(C)(C)c1nc2c(C#N)cccn2c1-c1cccc(Oc2cccc(CS(C)(=O)=O)c2)c1` [Example 116, 2-tert-butyl-3-(3-{3-[(methylsulfonyl)methyl]phenoxy}phenyl)imidazo[1,2-a]pyridine-8-carbonitrile], the IC50 [2] was over 1 µM and the IC50 [3] was 0.97 µM.
With `CC(C)c1nc2c(Cl)cccn2c1-c1cccc(Oc2cccc(CS(C)(=O)=O)c2)c1` [Example 117, 8-chloro-2-isopropyl-3-(3-{3-[(methylsulfonyl)methyl]phenoxy}phenyl)imidazo[1,2-a]pyridine] the IC50 [2] was over 1 µM and the IC50 [3] was 0.46 µM.
`CCc1nc2c(C#N)cccn2c1-c1cccc(Oc2cccc(CS(C)(=O)=O)c2)c1` [Example 118, 2-ethyl-3-(3-{3-[(methylsulfonyl)methyl]phenoxy}phenyl)imidazo[1,2-a]pyridine-8-carbonitrile] was tested, and the IC50 [2] was over 1 µM and the IC50 [3] was over 1 µM.
`CC(C)c1nc2c(Cl)cccn2c1-c1ccc(Oc2cccc(S(C)(=O)=O)c2)cc1` [Example 121, 8-chloro-2-(1-methylethyl)-3-{4-[3-(methylsulfonyl)phenoxy]phenyl}imidazo[1,2-a]pyridine] gave an IC50 [2] of over 1 µM and an IC50 [3] of 0.46 µM.
`CCS(=O)(=O)c1cccc(Oc2ccc(-c3c(C(C)C)nc4c(Cl)cccn34)cc2)c1` [Example 122, 8-chloro-3-{4-[3-(ethylsulfonyl)phenoxy]phenyl}-2-(1-methylethyl)imidazo[1,2-a]pyridine] gave an IC50 [2] of over 1 µM and an IC50 [3] of 0.345 µM.
Molecule `Cc1nccn1Cc1nc2c(C(F)(F)F)cccn2c1-c1cccc(Oc2cccc(S(C)(=O)=O)c2)c1` [Example 130, 2-[(2-methyl-1H-imidazol-1-yl)methyl]-3-{3-[3-(methylsulfonyl)phenoxy]phenyl}-8-(trifluoromethyl)imidazo[1,2-a]pyridine] has an IC50 [2] of over 1 µM and an IC50 [3] of 0.23 µM.
For `CN(C)Cc1nc2c(C(F)(F)F)cccn2c1-c1cccc(Oc2cccc(S(C)(=O)=O)c2)c1` [Example 137, N,N-dimethyl-1-[3-{3-[3-(methylsulfonyl)phenoxy]phenyl}-8-(trifluoromethyl)imidazo[1,2-a]pyridin-2-yl]methanamine], the IC50 [2] was over 1 µM and the IC50 [3] was over 1 µM.
In the case of `CCc1nc2c(C(F)(F)F)cccn2c1-c1cccc(Oc2cccc(S(=O)(=O)CCCC#N)c2)c1` [Example 140, 4-[(3-{3-[2-ethyl-8-(trifluoromethyl)imidazo[1,2-a]pyridin-3-yl]phenoxy}phenyl)sulfonyl]butanenitrile], the IC50 [2] is reported as 0.91 µM and the IC50 [3] is reported as 0.069 µM.
`CCc1nc2c(C(F)(F)F)cccn2c1-c1cccc(Oc2ccc(C#N)c(S(C)(=O)=O)c2)c1` [Example 141, 4-{3-[2-ethyl-8-(trifluoromethyl)imidazo[1,2-a]pyridin-3-yl]phenoxy}-2-(methylsulfonyl)benzonitrile] was tested, and the IC50 [2] was over 1 µM and the IC50 [3] was 0.7 µM.
For `Cc1nc2c(C(F)(F)F)cccn2c1-c1cccc(Oc2ccc(C#N)c(S(C)(=O)=O)c2)c1` [Example 142, 2-(methylsulfonyl)-4-{3-[2-methyl-8-(trifluoromethyl)imidazo[1,2-a]pyridin-3-yl]phenoxy}benzonitrile], the IC50 [2] was over 1 µM and the IC50 [3] was over 1 µM.
